Test results taken from patent publication US7635696B2, “Isoxazoline-indole derivatives with an improved antipsychotic and anxiolytic activity” (Janssen Pharmaceutica N.V., priority 2004, dated 2009).

What was measured:
human 5HT transporter = biological target: T1, human 5HT transporter (Homo sapiens, UniProt P31645); assay: Binding experiment for 5-HT transporter ([3H]Paroxetine); details: transfected HEK cell membranes, [3H]Paroxetine; for IC50: read-out: pIC50 5HTT (converted)
T1 construct: host or cells: HEK cells
T1 sequence (P31645 whole entry): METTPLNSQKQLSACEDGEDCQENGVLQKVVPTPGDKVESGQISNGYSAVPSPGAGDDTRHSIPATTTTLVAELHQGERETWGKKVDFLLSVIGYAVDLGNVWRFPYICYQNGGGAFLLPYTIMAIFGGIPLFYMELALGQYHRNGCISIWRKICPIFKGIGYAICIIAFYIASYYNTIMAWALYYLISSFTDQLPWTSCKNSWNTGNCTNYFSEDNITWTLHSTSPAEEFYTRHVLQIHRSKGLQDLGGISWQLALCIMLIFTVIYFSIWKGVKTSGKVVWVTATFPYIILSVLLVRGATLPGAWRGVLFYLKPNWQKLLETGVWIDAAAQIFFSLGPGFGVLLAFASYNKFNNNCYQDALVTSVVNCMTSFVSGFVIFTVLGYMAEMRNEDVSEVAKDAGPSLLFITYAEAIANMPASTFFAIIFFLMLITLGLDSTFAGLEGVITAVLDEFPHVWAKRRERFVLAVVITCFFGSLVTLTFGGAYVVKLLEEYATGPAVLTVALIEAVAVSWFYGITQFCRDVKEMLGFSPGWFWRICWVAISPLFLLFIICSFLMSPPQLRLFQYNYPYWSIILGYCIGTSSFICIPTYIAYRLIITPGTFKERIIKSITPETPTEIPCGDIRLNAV
Description: (§1) The interaction of the compounds of Formula (I) with dopamine-receptors, h5HT-transporter and h5HT1A receptor was assessed in in vitro radioligand binding experiments. In general, a low concentration of a radioligand with a high binding affinity for a particular receptor or transporter is incubated with a sample of a tissue preparation enriched in a particular receptor or transporter or with a preparation of cells expressing cloned human receptors in a buffered medium. During the incubation, the radioligand binds to the receptor or transporter. When equilibrium of binding is reached, the receptor bound radioactivity is separated from the non-bound radioactivity, and the receptor- or transporter-bound activity is counted. The interaction of the test compounds with the receptor is assessed in competition binding experiments. Various concentrations of the test compound are added to the incubation mixture containing the receptor- or transporter preparation and the radioligand. The test compound in proportion to its binding affinity and its concentration inhibits binding of the radioligand.
Frozen human 5HT transporter-transfected HEK cells (Perkin Elmer, Brussels) were thawed and briefly homogenised using an Ultra-Turrax T25 homogeniser prior to dilution to an appropriate protein concentration optimised for specific and non-specific binding. [^3H]Paroxetine (NEN, specific activity 20 Ci/mmol) was diluted in Tris-HCl assay buffer containing NaCl and KCl (50 mM, 120 mM and 5 mM, respectively; pH 7.4) at a concentration of 5 nmol/L. Prepared radioligand (25 μl) was then incubated (60 min, 25° C.) with membrane preparations (200 μl) and with 25 μl of either 10% DMSO control, Inipramine (10^−6 mol/L final concentration), or compound of interest. Membrane-bound activity was detected by filtration through a Packard Filtermate harvester onto Unifilterplates pre-soaked in 0.1% PEI, washing with ice-cold assay buffer (3×4 ml). Filters were dried prior to addition of scintillation fluid and then counting in a Topcount scintillation counter. % Specific bound and competition binding curves were calculated using S-Plus software (Insightful).

Human 5HT1A receptor = biological target: T2, Human 5HT1A receptor (Homo sapiens, UniProt P08908); assay: Binding experiment for 5-HT1A receptor ([3H]8OHDPAT); details: transfected L929 cell membranes, [3H]8OHDPAT; for IC50: read-out: pIC50 5-HT1A (converted)
T2 construct: expressed in transfected cells; host or cells: L929 cells (stably transfected)
T2 sequence (P08908 1-422): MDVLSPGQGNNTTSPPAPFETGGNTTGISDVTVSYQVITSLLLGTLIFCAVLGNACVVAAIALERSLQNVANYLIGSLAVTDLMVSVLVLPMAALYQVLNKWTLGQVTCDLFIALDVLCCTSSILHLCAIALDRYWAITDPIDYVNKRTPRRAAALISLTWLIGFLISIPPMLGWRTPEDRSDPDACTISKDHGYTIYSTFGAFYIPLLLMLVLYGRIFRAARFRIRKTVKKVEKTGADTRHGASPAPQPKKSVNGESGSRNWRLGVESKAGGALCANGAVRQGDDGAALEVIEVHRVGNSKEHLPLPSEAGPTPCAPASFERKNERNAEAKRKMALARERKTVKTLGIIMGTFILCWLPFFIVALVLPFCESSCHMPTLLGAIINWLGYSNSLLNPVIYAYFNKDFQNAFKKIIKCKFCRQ
Description: as §1
Human 5HT1A receptor-transfected L929 cells were collected by scraping into ice-cold Tris-HCl buffer (50 mM, pH 7.4). The suspension was centrifuged (23 500×g, 10 min, 4° C.) and pellets stored at −70° C. until required. They were then thawed and briefly homogenised using an Ultra-Turrax T25 homogeniser prior to dilution to an appropriate protein concentration optimised for specific and non-specific binding. [^3H]80HDPAT (NEN, specific activity 127 Ci/mmol) was diluted in Tris-HCl assay buffer containing CaCl2 (50 mM and 4 mM, respectively; pH 7.7) at a concentration of 5 nmol/L. Prepared radioligand (50 μl) was then incubated (30 min, 37° C.) with membrane preparations from L929 cells stably-transfected with the h5HT1A gene construct (400 μl) and with 50 μl of either the 10% DMSO control, spiroxatrine (10^−6 mol/L final concentration), or compound of interest. Membrane-bound activity was detected by filtration through a Packard Filtermate harvester onto Unifilterplates, washing with ice-cold Tris-HCl buffer (3×4 ml), followed by drying. Scintillation fluid was added and membranes were counted in a Topcount scintillation counter. % Specific bound and competition binding curves were calculated using S-Plus software (Insightful).

[1] = biological target: T3, Human Dopamine D2L receptor (Homo sapiens, UniProt P14416); assay: Binding experiment for dopamine D2 receptor ([3H]Spiperone); details: D2L-transfected CHO cell membranes; for IC50: read-out: pIC50 D2 (converted)
T3 construct: expressed in transfected cells; host or cells: CHO cells
T3 sequence (P14416 whole entry): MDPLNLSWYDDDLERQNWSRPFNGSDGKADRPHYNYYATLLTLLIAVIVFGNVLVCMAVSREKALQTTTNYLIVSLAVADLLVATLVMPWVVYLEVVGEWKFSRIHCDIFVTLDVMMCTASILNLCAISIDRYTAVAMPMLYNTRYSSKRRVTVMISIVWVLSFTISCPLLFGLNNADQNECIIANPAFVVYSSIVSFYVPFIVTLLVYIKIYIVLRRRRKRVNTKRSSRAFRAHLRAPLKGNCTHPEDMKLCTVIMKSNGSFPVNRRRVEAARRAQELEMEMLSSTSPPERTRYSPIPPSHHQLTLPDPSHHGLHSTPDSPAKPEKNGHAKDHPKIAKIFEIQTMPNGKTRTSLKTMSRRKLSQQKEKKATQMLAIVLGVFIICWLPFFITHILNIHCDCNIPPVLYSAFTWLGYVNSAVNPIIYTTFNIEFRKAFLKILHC
Description: as §1
Human Dopamine D2L receptor-transfected CHO cells were collected by scraping into ice-cold Tris-HCl buffer (50 mM, pH 7.4). The suspension was centrifuged (23 500×g, 10 min, 4° C.) and pellets stored at −70° C. until required. They were then thawed and briefly homogenised using an Ultra-Turrax T25 homogeniser prior to dilution to an appropriate protein concentration optimised for specific and non-specific binding. [^3H]Spiperone (NEN, specific activity ˜70 Ci/mmol) was diluted in Tris-HCl assay buffer containing NaCl, CaCl2, MgCl2, KCl (50, 120, 2, 1, and 5 mM respectively, adjusted to pH 7.7 with HCl) at a concentration of 2 nmol/L. Prepared radioligand (50 μl) was then incubated (30 min, 37° C.) with membrane preparations pre-diluted to an appropriate protein concentration (400 μl), and with 50 μl of either the 10% DMSO control, Butaclamol (10^−6 mol/L final concentration), or compound of interest. Membrane-bound activity was detected by filtration through a Packard Filtermate harvester onto Unifilterplates, washing with ice-cold Tris-HCl buffer (50 mM; pH8.0; 3×4 ml). Filters were allowed to dry before adding scintillation fluid and counting in a Topcount scintillation counter. % Specific bound and competition binding curves were calculated using S-Plus software (Insightful).

[2] = biological target: T4, Human Dopamine D3 receptor (Homo sapiens, UniProt P35462); assay: Binding experiment for dopamine D3 receptor ([125I]Iodosulpride); details: transfected CHO cell membranes; for IC50: read-out: pIC50 D3 (converted)
T4 construct: expressed in transfected cells; host or cells: CHO cells
T4 sequence (P35462 whole entry): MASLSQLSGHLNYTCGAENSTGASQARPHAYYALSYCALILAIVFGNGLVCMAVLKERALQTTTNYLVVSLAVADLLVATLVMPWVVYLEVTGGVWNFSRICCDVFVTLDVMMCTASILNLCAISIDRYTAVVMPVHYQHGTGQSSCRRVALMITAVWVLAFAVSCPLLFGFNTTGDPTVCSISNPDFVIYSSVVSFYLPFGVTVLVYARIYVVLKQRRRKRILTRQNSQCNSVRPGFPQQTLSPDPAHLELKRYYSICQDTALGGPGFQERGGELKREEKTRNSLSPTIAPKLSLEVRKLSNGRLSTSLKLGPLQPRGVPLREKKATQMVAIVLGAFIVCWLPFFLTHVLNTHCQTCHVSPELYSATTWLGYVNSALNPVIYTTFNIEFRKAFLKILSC
Description: as §1
Human Dopamine D3 receptor-transfected CHO cells were collected by scraping into ice-cold Tris-HCl buffer (50 mM, pH 7.4). The suspension was centrifuged (23 500×g, 10 min, 4° C.) and pellets stored at −70° C. until required. They were then thawed and briefly homogenised using an Ultra-Turrax T25 homogeniser prior to dilution to an appropriate protein concentration optimised for specific and non-specific binding. [^125I]Iodosulpride (Amersham, specific activity 2000 Ci/mmol) was diluted in Tris-HCl assay buffer containing NaCl, CaCl2, MgCl2, KCl and BSA (50, 120, 2, 1, 5 mM, 0.1% respectively, adjusted to pH 7.7 with HCl) at a concentration of 2 nmol/L. Prepared radioligand (20 μl) was incubated (60 min, RT) and with 20 μl of either the 10% DMSO control, Risperidone (10^−6 mol/L final concentration), or compound of interest, then with membrane preparations (80 μl). Overnight incubation followed after addition of WGA-coated PVT SPA beads (250 μl; Amersham) and membrane-bound counts measured in a Wallac Microbeta. % Specific bound and competition binding curves were calculated using S-Plus software (Insightful).

Structure (SMILES)	pIC50 5HTT (human 5HT transporter)	pIC50 5-HT1A (Human 5HT1A receptor)	pIC50 D2 [1]	pIC50 D3 [2]	IC50 (human 5HT transporter)	IC50 (Human 5HT1A receptor)	IC50 [1]	IC50 [2]
COc1cc2c(cc1OC)C1=NOC(CN3CC=C(c4c[nH]c5ccc(C)cc45)CC3)C1CO2 (racemic) [Compound 18]	7.0	8.2	6.4	6.4				
COc1cc2c(cc1OC)C1=NOC(CN3CCC(c4c[nH]c5ccc(F)cc45)CC3)C1CO2 (single isomer, unassigned) [Compound 15]	7.1	7.2	6.1	6.4				
COc1cc2c(cc1OC)C1=NOC(CN3CCC(c4c[nH]c5ccc(Cl)cc45)CC3)C1CO2 (racemic) [Compound 32]	7.4	8.5	6.8	6.6				
COc1cc2c(cc1OC)C1=NOC(CN3CC=C(c4c[nH]c5ccc(O)cc45)CC3)C1CO2 (racemic) [Compound 21]					39.8 nM	12.6 nM	631 nM	158 nM
COc1cc2c(cc1OC)C1=NOC(CN3CCC(c4c[nH]c5ccc(F)cc45)CC3)C1CO2 (single isomer, unassigned) [Compound 11]	6.9	8.9	7.2	7.2				
COc1cc2c(cc1OC)C1=NOC(CN3CC=C(c4c[nH]c5ccc(Cl)cc45)CC3)C1CO2 (racemic) [Compound 25]	7.1	8.3	6.6	6.9				
COc1cc2c(cc1OC)C1=NOC(CN3CC=C(c4c[nH]c5ccccc45)CC3)C1CO2 (single isomer, unassigned) [Compound 14]	7.5	8.3	6.8	6.5				
Fc1ccc2[nH]cc(C3=CCN(CC4ON=C5c6cc7c(cc6OCC54)OCCO7)CC3)c2c1 (single isomer, unassigned) [Compound 28]	7.8	8.6	6.3	6.2				
COc1cc2c(cc1OC)C1=NOC(CN3CC=C(c4c[nH]c5cccc(F)c45)CC3)C1CO2 (racemic) [Compound 9]	7.5	8.2	6.1	6.6				
COc1cc2c(cc1OC)C1=NOC(CN3CCC(c4c[nH]c5c(F)cccc45)CC3)C1CO2 (racemic) [Compound 30]	6.5	7.4	6.0	6.4				
COc1cc2c(cc1OC)C1=NOC(CN3CC=C(c4c[nH]c5cc(F)ccc45)CC3)C1CO2 (racemic) [Compound 27]	7.6	7.2	6.9	6.4				
COc1cc2c(cc1OC)C1=NOC(CN3CCC(c4c[nH]c5cc(F)ccc45)CC3)C1CO2 (racemic) [Compound 26]	7.6	8.2	7.9	6.7				
COc1cc2c(cc1OC)C1=NOC(CN3CC=C(c4c[nH]c5ccc(F)cc45)CC3)C1CO2 (racemic) [Compound 1]					15.8 nM	31.6 nM	398 nM	126 nM
COc1cc2c(cc1OC)C1=NOC(CN3CCC(c4c[nH]c5ccc(C#N)cc45)CC3)C1CO2 (racemic) [Compound 24]	7.4	8.7	6.4	6.9				
COc1cc2c(cc1OC)C1=NOC(CN3CC=C(c4c[nH]c5cccc(F)c45)CC3)C1CO2 (single isomer, unassigned) [Compound 13]	7.7	8.7	6.2	6.8				
COc1cc2c(cc1OC)C1=NOC(CN3CC=C(c4c[nH]c5ccc(F)cc45)CC3)C1CO2 (single isomer, unassigned) [Compound 12]	8.0	7.6	6.5	7.3				
COc1cc2c(cc1OC)C1=NOC(CN3CCC(c4c[nH]c5ccc(C)cc45)CC3)C1CO2 (racemic) [Compound 31]					200 nM	3.16 nM	398 nM	398 nM
COc1cc2c(cc1OC)C1=NOC(CN3CC=C(c4c[nH]c5ccc(F)cc45)CC3)C1CO2 (single isomer, unassigned) [Compound 3]	7.4	6.8	6.0	7.0				
COc1cc2c(cc1OC)C1=NOC(CN3CC=C(c4c[nH]c5ccccc45)CC3)C1CO2 (single isomer, unassigned) [Compound 6]	7.1	6.6	<6	6.2				
COc1cc2c(cc1OC)C1=NOC(CN3CCC(c4c[nH]c5ccccc45)CC3)C1CO2.O=C(O)C(=O)O (single isomer, unassigned) [Compound 45]	6.9	7.0	6.3					
